Assay results from US5480867A, “Glucagon analogs with serine replacements” (The Rockefeller University, priority 1994, dated 1996).
Residues, ends and D or L forms follow the SMILES beside them. No end group written: not given here.

How the values were obtained:
adenylate cyclase [1] = details: for % Relative Activity: adenylate cyclase activity relative to glucagon, liver membranes, analogs measured as amides; for pA2: negative logarithm of antagonist concentration reducing response to 1 unit agonist to that of 0.5 unit, measured as amides
Description: Adenylate Cyclase Assay. The assay on liver membranes was performed according to Salomon et al. [Salomon, Y., Londos, C. & rodgell, M. Anal. Biochem. 58, 541, 548 (1974)]. The released cAMP was mixed with [8-^3 H]cAMP measured with a high affinity cAMP binding protein.
The purpose of the adenylate cyclase assay is to measure the ability of the compound under test to stimulate the activity of adenylate cyclase. The assays are used to measure relative potency, maximum activity and inhibition index.
The inhibition index, defined above, was determined from adenylate cyclase assays by two different protocols.
1. A glucagon standard curve for cAMP vs glucagon concentration was established. Then another glucagon assay curve was measured in the presence of a constant amount of antagonist.
2. A series of tubes were set up containing an amount of glucagon which will produce 90% of maximum response. Increasing amounts of antagonist were then added and the concentration that reduced the response to 45% of maximum was determined.

glucagon receptor = glucagon receptor (Homo sapiens, UniProt P47871); details: background statement; cited from earlier work
adenylate cyclase [2] = details: background statement; cited from earlier work

Chain of glucagon receptor (P47871 26-477, species assumed): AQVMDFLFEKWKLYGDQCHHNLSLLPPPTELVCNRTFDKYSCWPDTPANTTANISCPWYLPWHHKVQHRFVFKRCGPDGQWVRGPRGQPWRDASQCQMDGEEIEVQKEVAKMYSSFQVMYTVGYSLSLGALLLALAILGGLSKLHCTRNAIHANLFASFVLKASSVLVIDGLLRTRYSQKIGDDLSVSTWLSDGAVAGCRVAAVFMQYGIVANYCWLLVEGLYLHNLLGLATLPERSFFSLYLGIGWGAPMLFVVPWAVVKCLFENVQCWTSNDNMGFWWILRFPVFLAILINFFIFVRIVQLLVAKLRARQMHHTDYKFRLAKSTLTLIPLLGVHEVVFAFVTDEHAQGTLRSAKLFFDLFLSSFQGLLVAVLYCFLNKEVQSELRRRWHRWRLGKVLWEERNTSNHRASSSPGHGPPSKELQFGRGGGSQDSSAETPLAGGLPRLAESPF

Molecule | % Relative Activity (adenylate cyclase [1]) | pA2 (adenylate cyclase [1]) | binding to the glucagon receptor (glucagon receptor) | activation of adenylate cyclase (adenylate cyclase [2])
CCCC[C@H](NC(=O)[C@H](CO)NC(=O)[C@@H](NC(=O)[C@H](Cc1ccccc1)NC(=O)[C@@H](NC(=O)CNC(=O)[C@H](CCC(N)=O)NC(=O)[C@@H](N)CO)[C@@H](C)O)[C@@H](C)O)C(=O)N[C@@H](Cc1ccc(O)cc1)C(=O)N[C@@H](C)C(=O)N[C@@H](CCCCN)C(=O)N[C@@H](Cc1ccc(O)cc1)C(=O)N[C@@H](CC(C)C)C(=O)N[C@@H](CC(=O)O)C(=O)N[C@@H](C)C(=O)N[C@@H](CCCNC(=N)N)C(=O)N[C@@H](CCCNC(=N)N)C(=O)N[C@@H](C)C(=O)N[C@@H](CCC(N)=O)C(=O)N[C@@H](CC(=O)O)C(=O)N[C@@H](Cc1ccccc1)C(=O)N[C@H](C(=O)N[C@@H](CCC(N)=O)C(=O)N[C@@H](Cc1c[nH]c2ccccc12)C(=O)N[C@@H](CC(C)C)C(=O)N[C@@H](CCSC)C(=O)N[C@@H](CC(N)=O)C(=O)N[C@H](C(N)=O)[C@@H](C)O)C(C)C [Analog 3, des-His^1 Nle^9 Ala^11 Ala^16] (HELM PEPTIDE1{S.Q.G.T.F.T.S.[Nle].Y.A.K.Y.L.D.A.R.R.A.Q.D.F.V.Q.W.L.M.N.T.[am]}$$$$V2.0) | 0.0043% | 8.4 |  | 
CCCC[C@H](NC(=O)[C@H](CO)NC(=O)[C@@H](NC(=O)[C@H](Cc1ccccc1)NC(=O)[C@@H](NC(=O)CNC(=O)[C@H](CCC(N)=O)NC(=O)[C@H](CO)NC(=O)[C@@H](N)Cc1c[nH]cn1)[C@@H](C)O)[C@@H](C)O)C(=O)N[C@@H](Cc1ccc(O)cc1)C(=O)N[C@@H](C)C(=O)N[C@@H](CCCCN)C(=O)N[C@@H](Cc1ccc(O)cc1)C(=O)N[C@@H](CC(C)C)C(=O)N[C@@H](CC(=O)O)C(=O)N[C@@H](CCC(N)=O)C(=O)N[C@@H](CCCNC(=N)N)C(=O)N[C@@H](CCCNC(=N)N)C(=O)N[C@@H](C)C(=O)N[C@@H](CCC(N)=O)C(=O)N[C@@H](CC(=O)O)C(=O)N[C@@H](Cc1ccccc1)C(=O)N[C@H](C(=O)N[C@@H](CCC(N)=O)C(=O)N[C@@H](Cc1c[nH]c2ccccc12)C(=O)N[C@@H](CC(C)C)C(=O)N[C@@H](CCSC)C(=O)N[C@@H](CC(N)=O)C(=O)N[C@H](C(N)=O)[C@@H](C)O)C(C)C [Analog 1, Nle^9 Ala^11 Gln^16] (HELM PEPTIDE1{H.S.Q.G.T.F.T.S.[Nle].Y.A.K.Y.L.D.Q.R.R.A.Q.D.F.V.Q.W.L.M.N.T.[am]}$$$$V2.0) | 0.003% | 8.7 |  | 
CCCC[C@H](NC(=O)[C@H](CO)NC(=O)[C@@H](NC(=O)[C@H](Cc1ccccc1)NC(=O)[C@@H](NC(=O)CNC(=O)[C@H](CCC(N)=O)NC(=O)[C@@H](N)CO)[C@@H](C)O)[C@@H](C)O)C(=O)N[C@@H](Cc1ccc(O)cc1)C(=O)N[C@@H](C)C(=O)N[C@@H](CCCCN)C(=O)N[C@@H](Cc1ccc(O)cc1)C(=O)N[C@@H](CC(C)C)C(=O)N[C@@H](CC(=O)O)C(=O)N[C@@H](CCC(N)=O)C(=O)N[C@@H](CCCNC(=N)N)C(=O)N[C@@H](CCCNC(=N)N)C(=O)N[C@@H](C)C(=O)N[C@@H](CCC(N)=O)C(=O)N[C@@H](CC(=O)O)C(=O)N[C@@H](Cc1ccccc1)C(=O)N[C@H](C(=O)N[C@@H](CCC(N)=O)C(=O)N[C@@H](Cc1c[nH]c2ccccc12)C(=O)N[C@@H](CC(C)C)C(=O)N[C@@H](CCSC)C(=O)N[C@@H](CC(N)=O)C(=O)N[C@H](C(N)=O)[C@@H](C)O)C(C)C [Analog 4, des-His^1 Nle^9 Ala^11 Gln^16] (HELM PEPTIDE1{S.Q.G.T.F.T.S.[Nle].Y.A.K.Y.L.D.Q.R.R.A.Q.D.F.V.Q.W.L.M.N.T.[am]}$$$$V2.0) | 0.0011% | 8.4 |  | 
Nα-trinitrophenyl [12-homoarginine]glucagon |  |  | does bind to the glucagon receptor | without significant activation of adenylate cyclase
SQGTFTSEYAKYLDARRAQEFVQWLMNT-NH2 [Analog 5, des-His^1 Glu^9 Ala^11 Ala^16 Glu^21] | 0.016% | 8.5 |  | 
CCCC[C@H](NC(=O)[C@H](CO)NC(=O)[C@@H](NC(=O)[C@H](Cc1ccccc1)NC(=O)[C@@H](NC(=O)CNC(=O)[C@H](CCC(N)=O)NC(=O)[C@@H](N)CO)[C@@H](C)O)[C@@H](C)O)C(=O)N[C@@H](Cc1ccc(O)cc1)C(=O)N[C@@H](CO)C(=O)N[C@@H](CCCCN)C(=O)N[C@@H](Cc1ccc(O)cc1)C(=O)N[C@@H](CC(C)C)C(=O)N[C@@H](CC(=O)O)C(=O)N[C@@H](C)C(=O)N[C@@H](CCCNC(=N)N)C(=O)N[C@@H](CCCNC(=N)N)C(=O)N[C@@H](C)C(=O)N[C@@H](CCC(N)=O)C(=O)N[C@@H](CC(=O)O)C(=O)N[C@@H](Cc1ccccc1)C(=O)N[C@H](C(=O)N[C@@H](CCC(N)=O)C(=O)N[C@@H](Cc1c[nH]c2ccccc12)C(=O)N[C@@H](CC(C)C)C(=O)N[C@@H](CCSC)C(=O)N[C@@H](CC(N)=O)C(=O)N[C@H](C(N)=O)[C@@H](C)O)C(C)C [Analog 2, des-His^1 Nle^9 Ala^16] (HELM PEPTIDE1{S.Q.G.T.F.T.S.[Nle].Y.S.K.Y.L.D.A.R.R.A.Q.D.F.V.Q.W.L.M.N.T.[am]}$$$$V2.0) | 0.001% | 8.4 |  | 
